This note sets out measurements from ChEMBL document CHEMBL4033668, “Inhibitors of cytochrome P450 (CYP) 1B1” (Eur J Med Chem, 2017).

For experiment [1], the target named is T1, Cytochrome P450 1A1 (Homo sapiens, UniProt P04798).
T1 sequence (P04798 whole entry): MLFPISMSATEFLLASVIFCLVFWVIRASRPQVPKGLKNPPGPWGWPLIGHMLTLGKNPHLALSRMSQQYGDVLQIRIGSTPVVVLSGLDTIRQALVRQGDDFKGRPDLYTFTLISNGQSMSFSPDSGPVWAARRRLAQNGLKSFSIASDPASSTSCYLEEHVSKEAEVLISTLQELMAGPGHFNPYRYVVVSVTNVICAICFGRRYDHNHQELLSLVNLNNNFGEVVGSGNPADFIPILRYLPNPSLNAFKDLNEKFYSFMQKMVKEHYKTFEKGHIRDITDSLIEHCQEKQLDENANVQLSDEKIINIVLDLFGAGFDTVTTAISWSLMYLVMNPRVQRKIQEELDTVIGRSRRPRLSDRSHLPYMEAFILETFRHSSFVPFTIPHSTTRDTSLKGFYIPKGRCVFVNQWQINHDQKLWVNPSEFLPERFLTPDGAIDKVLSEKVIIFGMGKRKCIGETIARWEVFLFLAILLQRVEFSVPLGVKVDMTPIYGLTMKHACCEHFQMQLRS
As to the kind of experiment: Mixed type inhibition of human hepatic microsomes CYP1A1 expressed in supersomes coexpressing NADPH-cytochrome P450 reductase using 7-Ethoxyresorufin as substrate measured every 30 secs for 3 mins in presence of NADPH by spectrofluorometric analysis. The class given is ADME.

Experiment [2] deals with T2, Cytochrome P450 1B1 (Homo sapiens, UniProt Q16678).
T2 sequence (Q16678 whole entry): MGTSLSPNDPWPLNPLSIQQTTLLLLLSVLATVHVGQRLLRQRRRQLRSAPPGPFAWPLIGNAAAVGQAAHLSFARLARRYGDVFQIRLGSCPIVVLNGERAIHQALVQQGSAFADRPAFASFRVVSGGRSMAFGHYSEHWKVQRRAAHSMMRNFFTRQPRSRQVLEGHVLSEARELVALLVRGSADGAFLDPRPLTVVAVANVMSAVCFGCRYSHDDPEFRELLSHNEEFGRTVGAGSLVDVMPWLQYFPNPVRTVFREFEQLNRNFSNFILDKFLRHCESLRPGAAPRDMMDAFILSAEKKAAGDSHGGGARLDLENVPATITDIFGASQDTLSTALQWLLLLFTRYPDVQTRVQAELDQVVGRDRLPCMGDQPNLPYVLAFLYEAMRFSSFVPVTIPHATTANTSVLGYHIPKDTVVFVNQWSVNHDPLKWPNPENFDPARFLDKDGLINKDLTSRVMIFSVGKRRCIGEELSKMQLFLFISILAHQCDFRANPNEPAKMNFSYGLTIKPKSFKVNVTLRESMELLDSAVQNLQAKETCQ
The experiment in a line: Mixed type inhibition of human hepatic microsomes CYP1B1 expressed in supersomes coexpressing NADPH-cytochrome P450 reductase using 7-Ethoxyresorufin as substrate measured every 30 secs for 3 mins in presence of NADPH by spectrofluorometric analysis.

For experiment [3], the target named is T1, Cytochrome P450 1A1. The experiment in a line: Competitive inhibition of […] CYP1A1 expressed in supersomes coexpressing NADPH-CYP reductase using 7-Ethoxyresorufin as substrate measured every 5 mins for 30 mins in presence of NADPH by fluorescence assay. It is filed as ADME. To be noted: read-out: Ki. For orientation: Liver microsomes are a subcellular fraction often used to study metabolism.

The target of experiment [4] is T3, Cytochrome P450 1A2 (Homo sapiens, UniProt P05177).
T3 sequence (P05177 whole entry): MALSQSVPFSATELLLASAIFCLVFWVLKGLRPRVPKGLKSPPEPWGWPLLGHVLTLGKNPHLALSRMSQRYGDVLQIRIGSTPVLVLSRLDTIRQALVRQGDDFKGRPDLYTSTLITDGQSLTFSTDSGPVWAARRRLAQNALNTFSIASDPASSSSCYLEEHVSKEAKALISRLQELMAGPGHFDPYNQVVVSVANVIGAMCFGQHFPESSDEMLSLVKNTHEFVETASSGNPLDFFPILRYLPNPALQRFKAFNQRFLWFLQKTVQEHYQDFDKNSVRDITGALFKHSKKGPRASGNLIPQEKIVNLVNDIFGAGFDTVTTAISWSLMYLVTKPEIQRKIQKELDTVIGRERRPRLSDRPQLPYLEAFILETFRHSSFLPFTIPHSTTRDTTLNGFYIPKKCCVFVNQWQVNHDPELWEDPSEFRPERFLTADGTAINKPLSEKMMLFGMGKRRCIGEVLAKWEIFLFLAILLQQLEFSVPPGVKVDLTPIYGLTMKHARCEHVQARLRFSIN
The experiment in a line: Competitive inhibition of […] CYP1A2 expressed in supersomes coexpressing NADPH-CYP reductase using 7-Ethoxyresorufin as substrate measured every 5 mins for 30 mins in presence of NADPH by fluorescence assay. The class given is ADME.

Experiment [5] addresses T2, Cytochrome P450 1B1. As to the kind of experiment: Competitive inhibition of […] CYP1B1 expressed in supersomes coexpressing NADPH-CYP reductase using 7-Ethoxyresorufin as substrate measured every 5 mins for 30 mins in presence of NADPH by fluorescence assay.
Experiment [6] concerns the target T2, Cytochrome P450 1B1. As to the kind of experiment: Inhibition of recombinant human CYP1B1 expressed in supersomes using ethoxyresorufin as substrate after 20 mins in presence of NADPH by fluorescence assay.
The target in experiment [7] is T3, Cytochrome P450 1A2. The experiment in a line: Inhibition of recombinant human CYP1A2 expressed in Escherichia coli DH5alpha using ethoxyresorufin as substrate preincubated for 3 mins followed by NADPH addition measured after 10 mins by spectrofluorometric assay. The class given is ADME.
Experiment [8] can be described thus: Competitive inhibition of […] CYP1 expressed in supersomes coexpressing NADPH-CYP reductase using 7-Ethoxyresorufin as substrate measured every 5 mins for 30 mins in presence of NADPH by fluorescence assay. The class given is ADME.
Experiment [9] deals with T1, Cytochrome P450 1A1. The experiment in a line: Inhibition of […] CYP1A1 expressed in Escherichia coli DH5alpha coexpressing NADPH-P450 reductase using 7-ethoxyresorufin O-deethylation as substrate in presence of NADPH by UV absorbance analysis. It is filed as ADME.
The target of experiment [10] is T3, Cytochrome P450 1A2. The experiment in a line: Inhibition of […] CYP1A2 expressed in Escherichia coli DH5alpha coexpressing NADPH-P450 reductase using 7-ethoxyresorufin O-deethylation as substrate in presence of NADPH by UV absorbance analysis. The class given is ADME.
Experiment [11] addresses T2, Cytochrome P450 1B1. As to the kind of experiment: Inhibition of […] CYP1B1 expressed in Escherichia coli DH5alpha coexpressing NADPH-P450 reductase using 7-ethoxyresorufin O-deethylation as substrate in presence of NADPH by UV absorbance analysis.
Experiment [12] has as its target T2, Cytochrome P450 1B1. The experiment in a line: Inhibition of CYP1B1 in TCDD-exposed human MCF-7 cells using ethoxyresorufin as substrate after 20 mins in presence of NADPH by Lineweaver-Burk linear regression plot analysis.
Experiment [13] concerns the target T2, Cytochrome P450 1B1. As to the kind of experiment: Inhibition of CYP1B1 in TCDD-exposed human MCF-7 cells using ethoxyresorufin as substrate after 20 mins in presence of NADPH by spectrofluorimetric analysis.
Experiment [14] deals with T1, Cytochrome P450 1A1. The experiment in a line: Inhibition of CYP1A1 in TCDD-exposed human MCF-7 cells using ethoxyresorufin as substrate after 20 mins in presence of NADPH by spectrofluorimetric analysis. It is filed as ADME.
Experiment [15] can be described thus: Selectivity ratio of IC50 for CYP1A1 in TCDD-exposed human MCF-7 cells to IC50 for CYP1B1 in TCDD-exposed human MCF-7 cells.
In experiment [16] the target is T2, Cytochrome P450 1B1. As to the kind of experiment: Inhibition of human CYP1B1 expressed in Escherichia coli DH5alpha coexpressing human NADPH-P450 reductase using 4-estradiol as substrate in presence of NADP+ by Michaelis-Menten plot analysis.
Experiment [17] deals with T2, Cytochrome P450 1B1. The experiment in a line: Inhibition of human CYP1B1 expressed in Escherichia coli DH5alpha coexpressing human NADPH-P450 reductase using 4-estradiol as substrate in presence of NADP+ by HPLC analysis.

The Ki is a dissociation constant, usually derived from enzyme kinetics or from competition with a known ligand. On to `COc1ccc2[nH]cc(CCNC(C)=O)c2c1` [MELATONIN], for which the Ki at Cytochrome P450 1A1 [1] came to 59000 nM; on Cytochrome P450 1B1 [2], 14000 nM.

On to `CCCCCc1cc(O)c2c(c1)OC(C)(C)c1ccc(C)cc1-2` [CANNABINOL], for which the Ki at Cytochrome P450 1A1 [3] came out at 541 nM; on Cytochrome P450 1A2 [4] it was 79 nM; at Cytochrome P450 1B1 [5], 148 nM.

For `C=C(C)C1CC=C(CO)CC1` (configuration not stated), the inhibition constant (Ki) on Cytochrome P450 1B1 [6] was 2000 nM.

The IC50 is the point on the concentration scale where inhibition reaches its midpoint. For `COc1cc(/C=C/c2ccc(OC)cc2OC)cc(OC)c1`, on Cytochrome P450 1A2 [7], the IC50 worked out at 3000 nM.

For the molecule `CCCCCc1cc(O)c2c(c1)OC(C)(C)[C@@H]1CCC(C)=C[C@@H]21` [DRONABINOL], in experiment [8], the Ki was 2470 to 7540 nM.

Consider `O=c1c2ccccc2nc2n1CCc1c-2[nH]c2ccc(O)cc12`, for which the IC50 stood at 2560 nM on Cytochrome P450 1A1 [9], 2570 nM on Cytochrome P450 1A2 [10] and 90 nM on Cytochrome P450 1B1 [11].

On to `Br.Cc1ccc(C(=O)Cn2c3c(sc2=N)CCCC3)cc1`, for which the Ki at Cytochrome P450 1B1 [12] turned out to be 4.38 nM. The half-maximal inhibitory concentration (IC50) at Cytochrome P450 1B1 [13] amounted to 20.6 nM; at Cytochrome P450 1A1 [14], 1500 nM. In [15], the “Ratio IC50” value was 73.

For the molecule `COc1ccc2cc3[n+](cc2c1OC)CCc1cc2c(cc1-3)OCO2` [BERBERINE], the Ki at Cytochrome P450 1B1 [16] was determined as 44 nM. At Cytochrome P450 1B1 [17], the IC50 turned out to be 330 nM.
